According to paper PMC2443290, “Genistein-Supplemented Diet Decreases Malaria Liver Infection in Mice and Constitutes a Potential Prophylactic Strategy” (PLoS ONE, 2008):
“And” between values parts separate entries of the source, which are not always exact repeats. Equal entries are not always repeated. Where two headings read alike, the source gives them in different places.

Key:
HepG2 cells = test: Viability of genistein-treated HepG2 cells, number of adherent cells; format: cell-based, human; conditions: 25 μM or 250 μM, 24 hours
Method: (§1) Twenty four hours later the number of adherent cells was determined in 10 fields per coverslip, in triplicates. […] Control sporozoites were treated with equivalent volume of DMSO. After 30 min of incubation, sporozoites were washed and added to a monolayer of HepG2 cells seeded 24 hours before. Infection was assessed 24 hours later by determining the number of EEFs in each well.

[1] = test system: P. berghei ANKA sporozoites; test: Mouse liver infection by P. berghei ANKA sporozoites, 18S rRNA qRT-PCR; format: in vivo
Method: (§2) C57BL/6 mice were bred and housed in the pathogen-free facilities of the Instituto de Gulbenkian de Ciência following all the EU regulations. The mice were then moved to the Instituto de Medicina Molecular Animal House were all the experiments were performed. All protocols were approved by the IMM Animal Care Committee. […] All mice were infected with 1×10^4 P. berghei ANKA sporozoites between the ages of 7 and 9 weeks old and liver infection was determined 40 hours later. In a parallel set of experiments, sporozoite infection was allowed to proceed to blood stage, to assess the impact of genistein in disease progression.
Forty hours post-sporozoite injection, livers were dissected and homogenized, and total RNA was extracted with an RNeasy Mini kit Quiagen, according to the manufacturer's recommendation. cDNA was obtained by reverse transcription using the First-strand cDNA synthesis kit (Roche) following the manufacturer's instructions. Quantitative RT-PCR reactions were performed for quantification of parasite load, using an ABI PRISM 7000, Applied Biosystem, and specific primers for Plasmodium berghei 18 S rRNA (5′-[…]-3′ and 5′-[…]-3′); or specific primers for P. yoelii 18 S rRNA (5′ –[…]-3′ and 5′-[…]-3′) were used for quantification of parasite load in the livers of mice 40 hours after sporozoite challenge. The amplification program consisted of incubation at 50°C for 2 min, 95°C for 10 min, followed by 50 cycles at 95°C for 15 s and 60°C for 1 min. For external standardization, plasmids encoding cDNA fragments cloned into TOPO TA, Invitrogen; corresponding to the amplified regions of the corresponding genes, were utilized. Copy numbers were calculated comparing the cycle numbers of the log-linear phase of the samples with the cycle numbers of the external standards.

P. yoelii sporozoites = test: Mouse liver infection by P. yoelii sporozoites, 18S rRNA qRT-PCR; format: in vivo; conditions: single i.p. dose 200 mg/kg immediately prior to i.v. sporozoites; 40 hours
Method: as §2
Forty hours post-sporozoite injection, livers were dissected and homogenized, and total RNA was extracted with an RNeasy Mini kit Quiagen, according to the manufacturer's recommendation. cDNA was obtained by reverse transcription using the First-strand cDNA synthesis kit (Roche) following the manufacturer's instructions. Quantitative RT-PCR reactions were performed for quantification of parasite load, using an ABI PRISM 7000, Applied Biosystem, and specific primers for Plasmodium berghei 18 S rRNA (5′-[…]-3′ and 5′-[…]-3′); or specific primers for P. yoelii 18 S rRNA (5′ –[…]-3′ and 5′-[…]-3′) were used for quantification of parasite load in the livers of mice 40 hours after sporozoite challenge. […]

[2] = test system: phospho c-met (Tyr1234/1235); test: Sporozoite-induced MET phosphorylation in Huh7 cells, Western blot; format: cell-based, human; conditions: four hours after sporozoites
Method: Four hours later total protein extracts were analysed with anti-phospho c-met (Tyr1234/1235) and MET antibodies.
Protein concentrations were determined using the Bio-Rad Laboratories DC protein assay kit and equal amounts of protein extracts ([…]) were separated by 8% SDS-PAGE gels, transferred onto nitrocellulose membranes and processed for Western blotting. The antibody directed to phospho-MET was used at 1∶1000 dilution (#3126; Cell signalling technology, Inc.) and β-chain of human MET was detected with the antibody MET (C-12) at 0,5 μg/mL dilution (#sc-10; Santa Cruz Biotechnology, Inc.). After incubation with the primary antibodies the enhanced chemiluminescence detection system ECL and Kodak films (Amersham Pharmacia Biotech, Piscataway, NJ) were used to visualize proteins on the nitrocellulose blots.

Huh7 cells = test: Cell death of Huh7 cells, propidium iodide flow cytometry; format: cell-based, human; conditions: 24 hours
[3] = test system: P. berghei ANKA sporozoites; test: Pre-treatment of sporozoites with genistein, then infection of HepG2 cells; format: cell-based; conditions: sporozoites incubated with 100 μM for 30 min, washed, added to HepG2 cells; 24 hours
Method: as §1

[4] = test system: P. berghei ANKA sporozoites; test: In vitro infection of Hepa1-6 cells by P. berghei ANKA sporozoites, EEF counting; format: cell-based
Method: (§3) HepG2, and Hepa1-6 cells (human and mouse hepatoma cell lines, respectively) were maintained in DMEM 10% FCS, 1% Penicillin/Streptomycin and 1 mM glutamine. HepG2 or Hepa1-6 cells (2×10^5) were seeded in 24-well plates and allowed to adhere for 24 hours before infection. Huh7 cells (human hepatoma cell line) were maintained in RPMI 10% FCS, 1% Penicillin/Streptomycin and 1 mM glutamine. Huh7 cells (1,75×10^5) were seeded in 24-well plates and allowed to adhere for 24 hours before infection. Green fluorescent protein (GFP)-expressing P. berghei ANKA sporozoites were obtained from the dissection of infected Anopheles stephensi mosquito salivary glands.
(§4) P. berghei ANKA sporozoites (4×10^4/well) were added to monolayers of Hepa1-6 or HepG2 cells in 24-well plates. […] As control, an equivalent volume of DMSO (dimethylsulphoxide) was added. […] In all experiments, genistein was left in the cultures since the time of addition until the cells were fixed for quantification of infection. Infection was quantified by counting the total number of EEFs per coverslip using fluorescence microscopy (magnification 400×). […] The level of infection was measured as described above, 24 hours post-infection with sporozoites. Quantification of the area of 100 individual EEFs of each group was performed using ImageJ 1.36b software. The results are expressed as areas in μm^2.

[5] = test system: P. berghei ANKA sporozoites; test: In vitro infection of Huh7 cells by P. berghei ANKA sporozoites, EEF counting; format: cell-based
Method: as §3, §4

P. berghei ANKA = test: IC50 of infection of Huh7 cells by P. berghei ANKA, 18S rRNA qRT-PCR; format: cell-based; conditions: Plasmodium berghei
Method: (§5) This was performed in parallel to experiments where primaquine was tested in P. berghei infection of Huh7 cells. […] In addition to hepatoma cell lines primary mouse hepatocyte cultures were also used.
Black circles represent the mean of P. berghei ANKA18S rRNA expression in each condition (n = 3). […] Black circles represent the mean of P. berghei ANKA18S rRNA expression in each condition (n = 3).

[6] = adults; daily ingestion of up to 54 mg; cited from earlier work
[7] = test system: P. berghei ANKA sporozoites; test: In vitro infection of HepG2 cells by P. berghei ANKA sporozoites, EEF counting; format: cell-based; conditions: 25 μM
Method: as §3
P. berghei ANKA sporozoites (4×10^4/well) were added to monolayers of Hepa1-6 or HepG2 cells in 24-well plates. […] As control, an equivalent volume of DMSO (dimethylsulphoxide) was added. After 24 hours cells were fixed and stained with mouse anti-EEF (exo-erythrocytic forms of the parasite) antibody (2E6), followed by an anti-mouse secondary antibody. In all experiments, genistein was left in the cultures since the time of addition until the cells were fixed for quantification of infection. Infection was quantified by counting the total number of EEFs per coverslip using fluorescence microscopy (magnification 400×). […] The level of infection was measured as described above, 24 hours post-infection with sporozoites. Quantification of the area of 100 individual EEFs of each group was performed using ImageJ 1.36b software. The results are expressed as areas in μm^2.

[8] = Genistein quantification in mouse sera, HPLC/MS; format: in vivo, C57BL/6 mice; conditions: for Genistein Concentration (μM): mouse sera, individual mice
Method: C57BL/6 mice were bred and housed in the pathogen-free facilities of the Instituto de Gulbenkian de Ciência following all the EU regulations. The mice were then moved to the Instituto de Medicina Molecular Animal House were all the experiments were performed. All protocols were approved by the IMM Animal Care Committee. […] All mice were infected with 1×10^4 P. berghei ANKA sporozoites between the ages of 7 and 9 weeks old and liver infection was determined 40 hours later.
“Free” analytes_aglycones, were extracted from the plasma/serum sample with ethyl acetate. The organic phase was evaporated and the dried residue was reconstituted in the mobile phase. For determination of the “total” isoflavones the glucuronide- and sulphate-conjugates were cleaved by enzymatic hydrolysis prior to ethyl acetate extraction. Chromatographic separation was performed by HPLC/MS on a C18-column in the gradient mode. Mass spectrometric detection (Agilent LC/MSD VL single-quadrupole-mass spectrometer equipped with elektrospray-ion source) was carried out with negative electrospray ionisation in the SIM-mode. Specifically, 200 μl of plasma were transferred into a 2 mL Eppendorf tube and 100 μl of enzyme solution were added. For enzymatic cleavage of the glucuronide- and sulphate-conjugates the samples were incubated at 38°C for 3 h, followed by addition of 30 μl internal standard solution. For extraction, 1200 μl ethyl acetate was added to the sample, shaken for 5 min at 300 rpm and centrifuged for 10 min at 10000 rpm and 10°C. 1000 μl of the supernatant was transferred into a 2 ml Eppendorf tube and evaporated at 30–35°C to dryness with a Vortex-Evaporator or Speed Vac. The dried residue was reconstituted in 150 μl mobile phase, briefly vortexed, and transferred into an HPLC vial. Forty to 75 μl were injected onto the analytical column and analyzed by HPLC-MS [35]. Data acquisition of extracted ion chromatograms, integration and quantification was performed with the Chemstation Software (Version 9.03 or higher) from Agilent Technologies.

P. yoelii = test: IC50 of infection of Hepa1-6 cells by P. yoelii, 18S rRNA qRT-PCR; format: cell-based; conditions: Plasmodium yoelii, Hepa1-6, 24 h, P. yoelii infection of Hepa1-6 cells, read-out: IC50 (inhibition of infection)
[9] = test system: P. berghei ANKA sporozoites; test: Blood parasitemia, survival and experimental cerebral malaria after sporozoite infection of mice; format: in vivo; conditions: 1000 ppm genistein-supplemented diet
Method: as §2
After sporozoite inoculation, peripheral blood parasitemias were followed daily by counting parasites in Giemsa stained thin blood films. To accurately quantify parasitemia in the first 96 hours post-infection, 50 to 100 microscope fields were examined in each blood film. At later time points, when the levels of parasitemia were higher, 20 microscope fields were counted per mouse. Mice were checked daily for development of ECM symptoms, which include ataxia, paralysis, deviation of the head and convulsions, coma and death.

P. berghei sporozoites = format: cell-based; conditions: data not shown
Method: as §5

[10] = test system: P. berghei ANKA expressing GFP sporozoites; test: FACS analysis of Huh7 cells infected with PbGFP sporozoites (invasion and GFP intensity); format: cell-based
Method: FACS analysis at 2, 6, 30 and 44 hours after sporozoite addition was performed to determine the percentage of parasite-containing cells and parasite-GFP intensity within infected cells. Cell samples for FACS analysis were processed as previously described.

[11] = test system: P. berghei ANKA-infected red blood cells (iRBC); test: Blood stage infection of mice with P. berghei ANKA iRBC; format: in vivo; conditions: 1000 ppm genistein-supplemented diet; 1×10^6 iRBC i.p.
Method: Peripheral blood parasitemia and ECM symptoms were determined as described above.

O=c1c(-c2ccc(O)cc2)coc2cc(O)cc(O)c12 [genistein]
number of adherent cells (HepG2 cells): constant number of cells
relation of degree of liver infection to genistein levels in sera ([1]; 1000 ppm genistein-supplemented diet): inversely correlated
liver parasite load ([1]; 1000 ppm genistein-supplemented diet, 40 hours after sporozoite injection): significantly reduced
parasite load in the liver ([1]; single i.p. dose 200 mg/kg immediately prior to i.v. sporozoites, 40 hours): reduced infection
reduction of liver infection ([1]; single oral dose 200 mg/kg 6 hours prior to sporozoite inoculation, 40 hours after infection): 64%
parasite load in the liver (P. yoelii sporozoites): reduced infection
sporozoite-induced Met phosphorylation [2]: inhibited by genistein
proportion of cell death (Huh7 cells): constant proportion of cell death
infection level (EEF number) with pre-treated sporozoites [3]: no significant difference
EEF size (area) ([4]; Hepa1-6, 25 μM, 24 hours after infection): significantly smaller
Hepa1-6 cell infection (total number of EEFs) ([4]; increasing doses of genistein, 24 hours after sporozoite addition): significantly inhibits Hepa1-6 cell infection in a dose-dependent manner
infection after pre-treatment of cells ([5]; Huh7 cells pre-treated 2 h with 25 μM, washed before sporozoite addition, 24 hours): small but significant reduction of infection
reduction in infection ([5]; Huh7 cells, 25 μM, 24 hours after infection): 68±4%
IC50 (P. berghei ANKA; Huh-7, 24 h, read-out: IC50 (inhibition of infection), P. berghei ANKA infection of Huh7 cells): ~20 µM
adverse effects [6]: No obvious adverse effects
infection, drug removed at different times after infection ([7]; HepG2, added at sporozoite addition and washed at various time-points): reduced infection when it was present during the first 4 hours of infection
infection, drug added at different times after sporozoite addition ([7]; HepG2, added prior to infection or up to 6 hours after sporozoite addition): significantly reduced infection to approximately the same extent
reduction in infection ([7]; HepG2 cells, 24 hours after infection): 74±8%
genistein amounts in sera ([8]; genistein supplemented diet): ≤ 5 µM
Genistein Concentration (μM) ([8]; single oral dose 200 mg/kg, 2 h after gavage, 200 mg/kg): 7,07 μM and 15,00 μM and 13,25 μM and 7,23 μM
Genistein Concentration (μM) ([8]; single oral dose 200 mg/kg, 6 h after gavage, 200 mg/kg): 0,57 μM and 0,32 μM and 0,45 μM and 2,29 μM
Genistein Concentration (μM) ([8]; supplemented diet 1000 ppm, 7–9 weeks old mice): 3,32 μM and 1,99 μM and 1,35 μM and 2,26 μM and 3,02 μM and 1,34 μM and 3,14 μM and 3,75 μM and 0,20 μM and 1,11 μM and 0,84 μM and 1,37 μM and 0,68 μM and 1,16 μM and 1,42 μM
IC50 (P. yoelii): ~30 µM
survival ([9]; 25 days after infection): 56%
appearance of blood parasitemia ([9]; i.v. sporozoites): significantly reduced
mice protected from developing cerebral malaria ([9]; i.v. sporozoites): Fifty-six
infection of primary mouse hepatocytes (P. berghei sporozoites): reduced the infection of these cells
increase in GFP intensity of infected cells (parasite development) ([10]; 6, 30 and 44 hours after sporozoite addition): significantly less pronounced
invasion rate (GFP positive cells) ([10]; 2 hours post-infection): equally invaded
development of parasitemia after iRBC infection [11]: no significant difference

COc1cc(NC(C)CCCN)c2ncccc2c1 (stereo not shown) [primaquine]
IC50 (P. berghei ANKA; Huh-7, P. berghei ANKA infection of Huh7 cells, 24 hours, read-out: IC50 (inhibition of infection)): 13 µM
